{"source": "paper PMC10970924", "about": "(Life, 2024)", "key": {"MTS cytotoxicity assay": {"experiment": "MTS cytotoxicity assay", "conditions": "human", "from_the_text": "The study utilized human cell lines including PC-3 (human prostate adenocarcinoma), HSF (primary human skin fibroblasts), MDA-MB-231 (estrogen-negative breast adenocarcinoma), MCF-7 (estrogen-positive breast adenocarcinoma), MSC (multipotent stem cells derived from adipose tissue), SF-539 (brain gliosarcoma), SNB-19 (glioblastoma), A-498 (kidney carcinoma), M-14 (human melanoma), NCI-H322-M (primary bronchioalveolar carcinoma), HCT-15 (colon adenocarcinoma), and HCT-116 (colorectal intestinal carcinoma). We also used immortalized C2C12 mouse myoblasts (ATCC—CRL-1772). Cancer cell lines were obtained from the ATCC collection and generously provided by the Fox Chase Cancer Center (Philadelphia, USA). Conditionally normal cells, including skin fibroblasts and multipotent stem cells, were isolated by our group from postoperative materials (skin and subcutaneous fat) obtained from a conditionally healthy donor. Reagents and consumables for cell culture work were purchased from PanEco (Russia).\nThe cytotoxicity of the compounds under study was assessed using MTS assay on cell cultures. Cells were seeded into 96-well plates at a concentration of 10,000–20,000 cells/mL. […] After 2 h of incubation, the resulting water-soluble formazan was measured using the TECAN Infinite M200 Pro microplate reader at wavelengths of 555/750 nm. […]"}, "MCF-7 cells [1]": {"tested_on": "MCF-7 cells", "experiment": "Comet assay", "type": "cell-based, human", "parameters": "Tail Length: unit not given here", "conditions": "for Olive Moment / Tail Area / Tail DNA % / Tail Intensity / Tail Length / Tail Moment: 3 days"}, "SF-539": {"tested_on": "SF-539", "experiment": "Proliferation by impedance biosensor (RTCA DP Analyzer)", "type": "cell-based", "conditions": "Homo sapiens, SF-539, 72 h, incubation three days, read-out: IC50 inhibitory concentration, SF-539", "method": "(§1) The effect of the test compounds on the proliferation of multiple cell lines was assessed in real time using the RTCA DP Analyzer (Roche, Basel, Switzerland). For this purpose, we used specialized E-plates containing wells similar in size to a standard 96-well plate, but their bottoms were covered with microelectrodes to assess impedance. When cells adhere to the microelectrodes, the impedance of the well changes, which allows us to calculate the cell index proportional to the cell number. In the experiment, cells were seeded in the E-plate at densities of 20,000 cells per milliliter (180 μL/well). At 24 h post-cell attachment, 20 μL of compounds at various test concentrations or solvent as a control were introduced, and cells were then cultured with real-time impedance registration for 5 days."}, "HCT-116": {"tested_on": "HCT-116", "experiment": "Proliferation by impedance biosensor (RTCA DP Analyzer)", "type": "cell-based", "conditions": "Homo sapiens, HCT-116, 72 h, incubation three days, read-out: IC50 inhibitory concentration, HCT-116", "method": "as §1"}, "MDA-MB-231": {"tested_on": "MDA-MB-231", "experiment": "Proliferation by impedance biosensor (RTCA DP Analyzer)", "type": "cell-based", "conditions": "Homo sapiens, MDA-MB-231, 72 h, incubation three days, read-out: IC50 inhibitory concentration, MDA-MB-231", "method": "as §1"}, "HSF": {"tested_on": "HSF", "experiment": "Proliferation by impedance biosensor (RTCA DP Analyzer)", "type": "cell-based", "conditions": "Homo sapiens, 72 h, incubation three days, read-out: IC50 inhibitory concentration, HSF", "method": "as §1"}, "PC-3": {"tested_on": "PC-3", "experiment": "Proliferation by impedance biosensor (RTCA DP Analyzer)", "type": "cell-based", "conditions": "Homo sapiens, PC-3, 72 h, incubation three days, read-out: IC50 inhibitory concentration, PC-3", "method": "as §1"}, "MCF-7 cells [2]": {"tested_on": "MCF-7 cells", "experiment": "Apoptosis induction, Annexin V-FITC/DAPI flow cytometry", "type": "cell-based, human", "method": "MCF-7 cells were seeded at a concentration of 15,000 cells/mL in a 6-well plate. Then, 24 h later the cells were treated with different concentrations of DOX-2 for 72 h. The nutrient medium over cells containing the floating cells was collected into tubes, and then the adherent cells were trypsinized and added to the fraction of floating cells. Then, cells were washed, placed in a binding buffer, stained with Annexin V-FITC/DAPI, and analyzed using the flow cytofluorimeter BD FACSCalibur™ (BD Biosciences, Franklin Lakes, NJ, USA). A total of 1% Triton X-100 was used as a control apoptosis inducer."}, "C2C12": {"tested_on": "C2C12", "experiment": "Colony formation assay", "type": "cell-based, mouse", "conditions": "Mus musculus, C2C12, 72 h, incubation three days, read-out: Inhibitory concentration IC50, C2C12", "method": "(§2) Cells were cultured in a 24-well plate with 1 mL of DMEM nutrient medium for 24 h. […] The experiment was conducted in triplicate and in two or three independent repetitions. Only solvent was added to the control wells instead of the test compounds. Incubation with the drugs continued for three days, after which the grown colonies were washed with cold PBS solution and fixed in a fixing buffer (10% acetic acid, 10% methanol in distilled water) for 15 min. The colonies were stained with a 0.4% solution of crystal violet in 20% ethanol for 30 min and then washed 3 times with dH2O and analyzed under a microscope. The colonies were then dissolved in 10% acetic acid for 40 min on a shaker, and the absorbance of the lysate was read at 590 nm. Results were expressed as a percentage relative to the control, and a dose–response curve was plotted to determine the IC50 value."}, "Colony formation assay": {"experiment": "Colony formation assay", "type": "cell-based, mouse", "conditions": "mouse, C2C12 cells, 100 μM, read-out: C2C12 cells remaining viable", "method": "as §2"}, "MCF-7": {"tested_on": "MCF-7", "experiment": "Proliferation by impedance biosensor (RTCA DP Analyzer)", "type": "cell-based, human", "conditions": "test concentration selected from biosensor data", "method": "as §1"}}, "note": "Values joined by “and” are separate entries in the source; they are usually repeats but may differ in a detail not shown here. Identical values can stand only once."}
{"smiles": "COc1cccc2c1C(=O)c1c(O)c3c(c(O)c1C2=O)C[C@@](O)(C(=O)CO)C[C@@H]3O[C@H]1C[C@H](N)[C@H](O)[C@H](C)O1", "note": "[DOX, Doxorubicin, reference compound]", "values": [{"measurement": "IC50 at 72 h", "setting": "MTS cytotoxicity assay; MSC multipotent stem cells derived from adipose tissue", "result": "1.1 ± 0.65", "unit": "µM"}]}
{"smiles": "COc1cccc2c1C(=O)c1c(O)c3c(c(O)c1C2=O)CC(O)(C(=O)CO)CC3OC1CC(NC(=O)/C=C/c2cnc(C)c3c2COC(C)(C)O3)C(O)C(C)O1", "note": "(stereo not drawn) [DOX-2, (E)-N-(3-hydroxy-2-methyl-6-((3,5,12-trihydroxy-3-(2-hydroxyacetyl)-10-methoxy-6,11-dioxo-1,2,3,4,6,11-hexahydrotetracen-1-yl)oxy)tetrahydro-2H-pyran-4-yl)-3-(2,2,8-trimethyl-4H-[1,3]dioxino[4,5-c]pyridin-5-yl)acrylamide]", "values": [{"measurement": "Olive Moment", "setting": "MCF-7 cells [1]; MCF-7, 5 µM (IC30)", "result": 0.73}, {"measurement": "Tail Area", "setting": "MCF-7 cells [1]; MCF-7, 5 µM (IC30)", "result": 1254}, {"measurement": "Tail DNA %", "setting": "MCF-7 cells [1]; MCF-7, 5 µM (IC30)", "result": 1.3, "unit": "%"}, {"measurement": "Tail Intensity", "setting": "MCF-7 cells [1]; MCF-7, 5 µM (IC30)", "result": 10}, {"measurement": "Tail Length", "setting": "MCF-7 cells [1]; MCF-7, 5 µM (IC30)", "result": 4.9}, {"measurement": "Tail Moment", "setting": "MCF-7 cells [1]; MCF-7, 5 µM (IC30)", "result": 0.14}, {"measurement": "Olive Moment", "setting": "MCF-7 cells [1]; MCF-7, 10 µM (IC60)", "result": 1.42}, {"measurement": "Tail Area", "setting": "MCF-7 cells [1]; MCF-7, 10 µM (IC60)", "result": 637}, {"measurement": "Tail DNA %", "setting": "MCF-7 cells [1]; MCF-7, 10 µM (IC60)", "result": 5.1, "unit": "%"}, {"measurement": "Tail Intensity", "setting": "MCF-7 cells [1]; MCF-7, 10 µM (IC60)", "result": 21}, {"measurement": "Tail Length", "setting": "MCF-7 cells [1]; MCF-7, 10 µM (IC60)", "result": 1.5}, {"measurement": "Tail Moment", "setting": "MCF-7 cells [1]; MCF-7, 10 µM (IC60)", "result": 0.21}, {"measurement": "Olive Moment", "setting": "MCF-7 cells [1]; MCF-7, 20 µM (IC70)", "result": 1.01}, {"measurement": "Tail Area", "setting": "MCF-7 cells [1]; MCF-7, 20 µM (IC70)", "result": 876}, {"measurement": "Tail DNA %", "setting": "MCF-7 cells [1]; MCF-7, 20 µM (IC70)", "result": 1.9, "unit": "%"}, {"measurement": "Tail Intensity", "setting": "MCF-7 cells [1]; MCF-7, 20 µM (IC70)", "result": 20}, {"measurement": "Tail Length", "setting": "MCF-7 cells [1]; MCF-7, 20 µM (IC70)", "result": 5.8}, {"measurement": "Tail Moment", "setting": "MCF-7 cells [1]; MCF-7, 20 µM (IC70)", "result": 0.25}, {"measurement": "DNA breaks in the Comet assay (in words)", "setting": "MCF-7 cells [1]; MCF-7, 72 h", "result": "do not cause DNA breaks"}, {"measurement": "IC50", "setting": "SF-539", "result": "11.6 ± 8.55", "unit": "µM"}, {"measurement": "IC50", "setting": "HCT-116", "result": "1.67 ± 0.02", "unit": "µM"}, {"measurement": "IC50", "setting": "MDA-MB-231", "result": "47.6 ± 26.1", "unit": "µM"}, {"measurement": "IC50", "setting": "HSF", "result": "~100", "unit": "µM"}, {"measurement": "IC50", "setting": "PC-3", "result": "40.3 ± 13.5", "unit": "µM"}, {"measurement": "Percentage of cells in early and late apoptosis", "setting": "MCF-7 cells [2]; MCF-7, 72 h, IC20–IC60 concentrations", "result": "up to 25%"}, {"measurement": "Accumulation of necrotic cells (in words)", "setting": "MCF-7 cells [2]; MCF-7, concentration corresponding to IC60", "result": "no accumulation of necrotic cells"}, {"measurement": "IC50", "setting": "C2C12", "result": "0.81 ± 0.07", "unit": "µM"}, {"measurement": "viability at 3 days, 100 µM", "setting": "Colony formation assay", "result": 30, "unit": "%"}, {"measurement": "IC20", "setting": "MCF-7; Homo sapiens, MCF7", "result": 1.5, "unit": "µM"}, {"measurement": "IC0, MCF-7", "setting": "MCF-7", "result": 0.4, "unit": "µM"}, {"measurement": "IC4, MCF-7", "setting": "MCF-7", "result": 0.7, "unit": "µM"}, {"measurement": "IC30, MCF-7", "setting": "MCF-7", "result": "5 μM and 5 µM (IC30) μM"}, {"measurement": "IC60, MCF-7", "setting": "MCF-7", "result": "10 μM and 10 µM (IC60) μM"}, {"measurement": "IC70, MCF-7", "setting": "MCF-7", "result": "20 μM and 20 µM (IC70) μM"}, {"measurement": "IC50 at 72 h", "setting": "MTS cytotoxicity assay", "result": "> 200", "unit": "µM"}]}
